From US5677459A, “Methods for the preparation of modulators of acetylcholine receptors” (Sibia Neurosciences, Inc., priority 1995, dated 1997) come the findings set out here.

Where a name gives a salt, the structure may show the parent alone. Read-outs that look alike come from different tables or passages of the source.

Assay [1] deals with muscarinic acetylcholine receptors. Kind of assay: ^3 H-QNB (quinuclidinyl benzilate) binding/displacement, rat cerebral membranes. Particulars: ^3 H-QNB 60 pM, rat cerebral membranes.
In assay [2] the target is T1, nicotinic acetylcholine receptor (Rattus norvegicus, UniProt P09483+P12390).
T1 construct: the brains removed and the cerebral cortex dissected on ice; from tissue; host or cells: cerebral cortex synaptic membranes of male Sprague-Dawley rats
Kind of assay: ^3 H-Nicotine binding/displacement, rat cerebral membranes. As to conditions: ^3 H-nicotine 1.9 nM, rat cerebral membranes; read-out: IC50, Nicotine. The procedure: ^3 H-Nicotine binding to rat cerebral membranes was performed according to modifications of the method of Flyn and Mash (J. Neurochem. 47:1948 (1986)). ^3 H-Nicotine (80 ci/mmol; New England Nuclear Corporation, Boston, Mass.) was used as the ligand for nicotinic acetylcholine receptor binding assays. All other reagents were purchased from the Sigma Chemical Co. (St. Louis, Mo.).
Male Sprague-Dawley rats (250-400 gm) were sacrificed by decapitation, the brains removed and the cerebral cortex dissected on ice. Synaptic membranes were prepared by homogenizing the cortical tissue in 20 volumes of ice-cold modified Tris buffer (50 mM Tris pH 7.4, 120 mM NaCl, 5 mM KCl, 2 mM EDTA, 1 mM PMSF) with a polytron (20 sec at setting 5-6) followed by centrifugation (15 min at 5,000×g) at 4° C. The resultant pellet was rehomogenized and centrifuged twice. The final pellet was resuspended in ice-cold assay buffer (50 mM Tris pH 7.4, 120 mM NaCl, 5 mM KCl, 2 mM CaCl2, 1 mM MgCl2) at a concentration of membrane equivalent to 1 gm wet weight cortex per 10 ml buffer. After protein determination the final membrane preparation was diluted with buffer to 3 mg protein/mi. This membrane preparation was used in either the fresh state or frozen (-70° C.) then thawed.
The binding assay is performed manually using 96-well plates, or using a Biomek automated work station (Beckman Instrument Co.). ^3 H-Nicotine was diluted in assay buffer to give a final concentration of 1.9 nM. The Biomek automated work station was programmed to automatically transfer 750 μl of assay buffer with ^3 H-nicotine, 230 μl of membrane preparation and 20 μl of solution containing the compound of interest in assay buffer, DMSO, ethanol:DMSO (1:1) or appropriate vehicle to the 96-well plate. Atropine was added to the incubation buffer at a final concentration of 3 μM to block binding to muscarinic acetylcholine receptor sites. The plates were maintained on ice for 60 min and the tissue-bound radioactivity was separated from the free by rapid filtration in a Brandel Harvester onto GF/C filters presoaked in 0.5% polyethyleneimine for at least 2 hr. The filters were washed with 4×2 ml of ice-cold assay buffer and filters were transferred to vials to which 4 ml of scintillation cocktail was added. The radioactivity was measured in a LS-6500 Beckman Liquid Scintillation Counter in an autodpm mode. Data were analyzed bylog-logit transformation or non-linear regression analysis (e.g., employing GraphPad Prism, available from GraphPad Software, San Diego, Calif.) to give IC50 values. Non-specific binding was defined by 10 μM cytisine.

In assay [3] the test system is ^3 H-Norepinephrine release, rat thalamus slices. Briefly: Ligand-stimulated ^3 H-norepinephrine release from rat thalamus slices. As to conditions: in vitro slices, 300 μM. The class given is cell-based. The procedure: (§1) Measurement of ^3 H-dopamine release from rat striatal slices was performed according to the method of Sacaan et al. (J. Neurochem. 59:245 (1992)). Male Sprague-Dawley rats (250-300 g) were decapitated and the striata or olfactory tubercles dissected quickly on a cold glass surface. The tissue was chopped to a thickness of 300 μm with a McIlwain tissue chopper. After chopping again at right angles the tissue was dispersed and incubated for 10 min. at 37° C. in oxygenated Kreb's buffer. ^3 H-Dopamine (40 Ci/mmol, NEN- Dupont, Boston, Mass.) was added (50 nM) and the tissue was incubated for 30 min. in Kreb's buffer containing 10 μM pargyline and 0.5 mM ascorbic acid. Aliquots of the minced tissue were then transferred to chambers of a Brandel Superfusion system in which the tissue was supported on Whatman GF/B filter discs. The tissue was then superfused with buffer at a constant flow rate of 0.3 ml/min by means of a Brandel peristaltic pump. The perfusate was collected in plastic scintillation vials in 3-min fractions, and the radioactivity was estimated by scintillation spectrophotometry. The superfusate for the first 120 min was discarded. After two baseline fractions had been collected, the superfusion buffer was switched to fresh buffer with or without compound of interest. At the end of the experiment the filter and the tissue were removed, and the radiolabeled neurotransmitter content was estimated after extraction into scintillation fluid. The fractional efflux of radiolabeled neurotransmitter was estimated as the amount of radioactivity in the perfusate fraction relative to the total amount in the tissue.
(§2) Following essentially the same procedure as set forth above, the amount of ^3 H-norepinephrine released from rat hippocampus, thalamus and prefrontal cortex slices superfused with buffer containing (or lacking) compounds of interest was also measured.
(§3) Results of studies of the effects of an invention compound (as compared to the effect of nicotine) on the release of neurotransmitters from rat brain slices are presented in Table II. Results presented in Part A of the Table are expressed as the percent fractional release and results presented in Part B of the Table are expressed as a percentage, relative to nicotine response.

The test system of assay [4] is ^3 H-Dopamine release, rat striatal slices. Briefly: Ligand-stimulated ^3 H-dopamine release from rat striatal slices. The class given is cell-based. As to conditions: in vitro slices, 300 μM. The procedure: as §1, §3
The subject of assay [5] is ^3 H-Dopamine release, rat olfactory tubercles. Kind of assay: Ligand-stimulated ^3 H-dopamine release from rat olfactory tubercles. The class given is cell-based. Particulars: in vitro slices, 300 μM. The protocol: as §1, §3
In assay [6] the test system is ^3 H-Norepinephrine release, rat hippocampus slices. Briefly: Ligand-stimulated ^3 H-norepinephrine release from rat hippocampus slices. Particulars: in vitro slices, 300 μM. The class given is cell-based. The procedure:
as §1, §2, §3

A further assay relates to rats. Briefly: Locomotor activity assay. The class given is in vivo, rat (male Sprague-Dawley). As to conditions: Rattus norvegicus, sc, 20 mg/kg, s.c. The protocol:
This assay can be used to assess the primary effect of a compound on general motor activity. A decrease in locomotor activity is indicative of a possible sedative effect on the animal, whereas an increase in locomotor activity is indicative of a stimulant effect on the animal.
Locomotor activity of rats (male Sprague-Dawley (Harlan) weighing 200-250 gm) was measured for 2 hrs in photocell cages immediately after administration of the invention compound. Prior to the test day, the animals were placed in the activity cages for 3 hrs to familiarize them with the experimental environment. On the test day, the animals were placed in the photocell cages and then injected with compound 1.5 hrs later.
The photocell cages were standard rodent cages (30 cm×20 cm×40 cm) with four infrared beams crossing the long axis. The animals were under no motivational constraints and were free to move around. Movements from one infrared beam to another (ambulation) were called "crossover"; successive interruptions of the same beam (vertical and other movements such as grooming) were called "general activity."

In assay [7] the test system is ^3 H-Norepinephrine release, rat prefrontal cortex slices. Kind of assay: Ligand-stimulated ^3 H-norepinephrine release from rat prefrontal cortex slices. The class given is cell-based. As to conditions: in vitro slices, 300 μM. The protocol:
as §1, §2, §3

[8] abbreviates: 1 h, 0-60 min, read-out: Ambulation (cross overs), percent of change from control.
[9] abbreviates: 1 h, 0-60 min, read-out: General Activity (beam breaks), percent of change from control.
Where [10] appears, read: 2 h, 60-120 min, read-out: Ambulation (cross overs), percent of change from control.
Where [11] appears, read: 2 h, 60-120 min, read-out: General Activity (beam breaks), percent of change from control.

T1 sequence (P09483 31-630): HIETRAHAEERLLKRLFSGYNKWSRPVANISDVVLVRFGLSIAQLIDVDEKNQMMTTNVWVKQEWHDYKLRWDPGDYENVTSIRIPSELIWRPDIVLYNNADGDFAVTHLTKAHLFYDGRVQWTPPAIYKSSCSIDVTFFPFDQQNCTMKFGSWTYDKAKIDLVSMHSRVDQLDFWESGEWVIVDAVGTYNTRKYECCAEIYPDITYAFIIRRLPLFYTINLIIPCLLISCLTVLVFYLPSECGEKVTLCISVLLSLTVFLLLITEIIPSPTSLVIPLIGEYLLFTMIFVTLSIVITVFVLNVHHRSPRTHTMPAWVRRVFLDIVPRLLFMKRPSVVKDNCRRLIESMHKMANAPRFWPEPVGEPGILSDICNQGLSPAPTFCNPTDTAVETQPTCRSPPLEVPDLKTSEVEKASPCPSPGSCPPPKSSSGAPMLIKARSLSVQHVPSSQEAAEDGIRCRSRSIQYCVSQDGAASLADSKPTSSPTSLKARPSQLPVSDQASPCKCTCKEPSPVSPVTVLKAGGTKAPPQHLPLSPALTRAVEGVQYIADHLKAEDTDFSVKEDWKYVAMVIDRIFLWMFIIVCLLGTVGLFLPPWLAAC
T1 sequence (P12390 25-500): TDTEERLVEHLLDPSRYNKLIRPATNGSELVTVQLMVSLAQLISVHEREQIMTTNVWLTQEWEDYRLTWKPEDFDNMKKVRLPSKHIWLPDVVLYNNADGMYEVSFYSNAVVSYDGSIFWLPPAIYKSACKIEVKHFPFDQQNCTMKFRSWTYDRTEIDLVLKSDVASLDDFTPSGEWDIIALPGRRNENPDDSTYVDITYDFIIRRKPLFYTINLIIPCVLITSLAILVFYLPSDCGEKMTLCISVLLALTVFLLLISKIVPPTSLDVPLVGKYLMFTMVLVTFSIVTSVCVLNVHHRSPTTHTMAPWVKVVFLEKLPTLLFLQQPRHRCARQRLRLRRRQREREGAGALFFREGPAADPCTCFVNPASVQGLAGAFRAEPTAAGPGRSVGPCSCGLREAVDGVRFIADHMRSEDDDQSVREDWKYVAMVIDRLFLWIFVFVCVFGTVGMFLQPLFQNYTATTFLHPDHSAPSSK

Take `Cc1ccc(-c2cncc(C3CCCN3C)c2)cc1.O=C(O)/C=C/C(=O)O` (stereo not shown) [R^5 = 4-methylphenyl, 5-(4-Methylphenyl)-3-(1-methyl-2-pyrrolidinyl)pyridine fumarate]: the results for the concentration for half-maximal inhibition (IC50) in assay [1] and in assay [2] were 14 µM and 0.031 µM, respectively. In addition, in assay [3], the “percent fractional release, ^3 H-Norepinephrine, Thalamus” value (“percent fractional release … Thalamus” below) was 0.31%. In assay [4], the “percent fractional release, ^3 H-Dopamine, Striatum” value amounted to 0.74%. For the same compound, the “percent fractional release, ^3 H-Dopamine, Olfactory Tubercles” value in assay [5] came to 1.0%. The “percent fractional release, ^3 H-Norepinephrine, Hippocampus” value (shortened to “percent fractional release … Hippocampus”) in assay [6] is on record as 0.52%.
On to `CN1CCCC1c1cncc(-c2ccc(O)cc2)c1.O=C(O)/C=C/C(=O)O` (stereo not shown) [R^5 = 4-hydroxyphenyl, 5-(4-Hydroxyphenyl)-3-(1-methyl-2-pyrrolidinyl)pyridine fumarate], for which the values for the IC50 in assay [1] and in assay [2] were 19.1 µM and 0.0054 µM, respectively. The change in vivo at 20 mg/kg with rats (setting [8]) was 74%; in the assay with rats (setting [9]), 96%; in the assay with rats (setting [10]), 110%; with rats (setting [11]) it was 7%. Besides, the “percent fractional release … Thalamus” value in assay [3] is recorded as 2.3%. Further, in assay [4], the “percent fractional release, ^3 H-Dopamine, Striatum” value came to 3.73%. The “percent fractional release, ^3 H-Norepinephrine, Prefrontal Cortex” value (shortened to “percent fractional release … Prefrontal Cortex”) in assay [7] stood at 3.16%. For the same compound, in assay [5], the “percent fractional release, ^3 H-Dopamine, Olfactory Tubercles” value was 6.62%. Moreover, in assay [6], the “percent fractional release … Hippocampus” value was 3.03%.
`CN1CCCC1c1cncc(-c2ccc(F)cc2)c1.O=C(O)/C=C/C(=O)O` (stereo not shown) [A = CH2; R^7 = CH3; R^5 = 4-fluorophenyl, 5-(4-Fluorophenyl)-3-(1-methyl-2-pyrrolidinyl) pyridine fumarate]: the change in vivo at 20 mg/kg was determined as 21% in the assay with rats (setting [8]), 95% with rats (setting [9]), 14% in the assay on rats (setting [10]) and 173% with rats (setting [11]). The “percent fractional release … Thalamus” value in assay [3] turned out to be 0.9%. For the same compound, the “percent fractional release, ^3 H-Dopamine, Striatum” value in assay [4] came to 1.96%. In assay [7], the “percent fractional release … Prefrontal Cortex” value came out at 1.23%. Further, the “percent fractional release, ^3 H-Dopamine, Olfactory Tubercles” value in assay [5] is 2.68%. The “percent fractional release … Hippocampus” value in assay [6] is on record as 0.58%.
For the compound `CN1CCCC1c1cncc(-c2ccc(-c3ccccc3)cc2)c1` (stereo not shown) [R^5 = 4-biphenyl, 5-(4-Biphenyl)-3-(1-methyl-2-pyrrolidinyl)pyridine fumarate], the values for the IC50 in assay [1] and in assay [2] were 9.5 µM and 0.047 µM, respectively. The change in vivo at 20 mg/kg was -9% in the assay with rats (setting [8]), -17% in the assay with rats (setting [9]), 73% in the assay with rats (setting [10]) and 98% in the assay with rats (setting [11]). For the same compound, in assay [3], the “percent fractional release … Thalamus” value came to 1.1%. For the same compound, the “percent fractional release, ^3 H-Dopamine, Striatum” value in assay [4] stood at 2.2%. The “percent fractional release … Prefrontal Cortex” value in assay [7] worked out at 3.4%. Besides, in assay [5], the “percent fractional release, ^3 H-Dopamine, Olfactory Tubercles” value came to 6.3%. The “percent fractional release … Hippocampus” value in assay [6] turned out to be 2.9%.
For the compound `CN1CCCC1c1cncc(-c2ccc(O)c(F)c2)c1.O=C(O)/C=C/C(=O)O` (stereo not shown) [R^5 = 3-fluoro-4-hydroxyphenyl, 5-(4-hydroxy-3-fluorophenyl)-3-(1-methyl-2-pyrrolidinyl)pyridine fumarate], the IC50 – broadly, the concentration needed to halve the response being measured – in assay [1] came out at 35 µM; in assay [2], 0.029 µM. Also, the change in vivo at 20 mg/kg is 49% in the assay on rats (setting [8]), 63% in the assay on rats (setting [9]), -14% with rats (setting [10]) and 26% in the assay on rats (setting [11]). Further, the “percent fractional release, ^3 H-Dopamine, Striatum” value in assay [4] worked out at 3.33%. The “percent fractional release … Prefrontal Cortex” value in assay [7] is on record as 1.14%. The “percent fractional release, ^3 H-Dopamine, Olfactory Tubercles” value in assay [5] was determined as 7.07%. Further, the “percent fractional release … Hippocampus” value in assay [6] is 1.47%.
Consider `COc1ccc(-c2cncc(C3CCCN3C)c2)cc1.O=C(O)/C=C/C(=O)O` (stereo not shown) [R^5 = 4-methyoxyphenyl, 5-(4-Methoxyphenyl)-3-(1-methyl-2-pyrrolidinyl)pyridine fumarate], for which the IC50 in assay [1] was 37.7 µM; in assay [2], 0.018 µM. Also, the change in vivo at 20 mg/kg in the assay with rats (setting [8]) was determined as 58%; in the assay with rats (setting [9]) it was 83%; with rats (setting [10]) it was 31%; in the assay with rats (setting [11]) it was 22%. Also, in assay [3], the “percent fractional release … Thalamus” value was 0.52%. Moreover, in assay [4], the “percent fractional release, ^3 H-Dopamine, Striatum” value stood at 2.1%. In addition, the “percent fractional release … Prefrontal Cortex” value in assay [7] came out at 1.04%. The “percent fractional release, ^3 H-Dopamine, Olfactory Tubercles” value in assay [5] was determined as 4.0%. In addition, the “percent fractional release … Hippocampus” value in assay [6] worked out at 0.99%.
